Reference: ChEMBL document CHEMBL1143351 (J Med Chem, 2009)

What was measured:
[1] = target: T1, Nitric oxide synthase, inducible (Mus musculus, UniProt P29477)
T1 sequence (P29477 whole entry): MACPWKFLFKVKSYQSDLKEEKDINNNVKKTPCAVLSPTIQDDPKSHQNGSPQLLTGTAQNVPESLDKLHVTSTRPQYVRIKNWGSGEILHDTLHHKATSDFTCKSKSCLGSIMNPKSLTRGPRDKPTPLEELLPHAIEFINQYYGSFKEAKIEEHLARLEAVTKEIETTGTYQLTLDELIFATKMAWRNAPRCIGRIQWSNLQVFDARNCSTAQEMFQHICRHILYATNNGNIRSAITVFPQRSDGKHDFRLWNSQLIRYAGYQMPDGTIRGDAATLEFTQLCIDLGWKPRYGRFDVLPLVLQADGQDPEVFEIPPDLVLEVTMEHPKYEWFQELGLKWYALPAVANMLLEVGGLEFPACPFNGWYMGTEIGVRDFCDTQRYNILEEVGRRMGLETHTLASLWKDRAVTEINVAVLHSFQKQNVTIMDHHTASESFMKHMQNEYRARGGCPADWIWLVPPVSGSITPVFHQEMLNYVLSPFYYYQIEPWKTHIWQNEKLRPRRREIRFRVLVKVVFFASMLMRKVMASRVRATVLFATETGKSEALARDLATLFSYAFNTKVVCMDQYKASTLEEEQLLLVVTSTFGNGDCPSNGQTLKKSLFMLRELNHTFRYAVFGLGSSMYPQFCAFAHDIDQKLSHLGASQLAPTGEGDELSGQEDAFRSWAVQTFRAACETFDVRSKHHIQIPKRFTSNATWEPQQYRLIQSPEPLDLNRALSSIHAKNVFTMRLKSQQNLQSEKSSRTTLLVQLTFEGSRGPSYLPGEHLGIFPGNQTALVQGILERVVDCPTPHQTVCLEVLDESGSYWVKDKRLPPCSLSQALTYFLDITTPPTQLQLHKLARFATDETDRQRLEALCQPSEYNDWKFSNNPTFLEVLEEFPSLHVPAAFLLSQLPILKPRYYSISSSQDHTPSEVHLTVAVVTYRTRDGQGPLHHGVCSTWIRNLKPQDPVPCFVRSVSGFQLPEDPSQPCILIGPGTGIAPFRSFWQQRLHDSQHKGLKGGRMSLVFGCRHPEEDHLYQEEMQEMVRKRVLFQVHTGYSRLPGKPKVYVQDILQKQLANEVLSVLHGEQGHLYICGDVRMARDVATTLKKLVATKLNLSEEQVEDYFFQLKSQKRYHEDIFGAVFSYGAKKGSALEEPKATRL

[2] = target: T2, Nitric oxide synthase 3 (Bos taurus, UniProt P29473)
T2 sequence (P29473 whole entry): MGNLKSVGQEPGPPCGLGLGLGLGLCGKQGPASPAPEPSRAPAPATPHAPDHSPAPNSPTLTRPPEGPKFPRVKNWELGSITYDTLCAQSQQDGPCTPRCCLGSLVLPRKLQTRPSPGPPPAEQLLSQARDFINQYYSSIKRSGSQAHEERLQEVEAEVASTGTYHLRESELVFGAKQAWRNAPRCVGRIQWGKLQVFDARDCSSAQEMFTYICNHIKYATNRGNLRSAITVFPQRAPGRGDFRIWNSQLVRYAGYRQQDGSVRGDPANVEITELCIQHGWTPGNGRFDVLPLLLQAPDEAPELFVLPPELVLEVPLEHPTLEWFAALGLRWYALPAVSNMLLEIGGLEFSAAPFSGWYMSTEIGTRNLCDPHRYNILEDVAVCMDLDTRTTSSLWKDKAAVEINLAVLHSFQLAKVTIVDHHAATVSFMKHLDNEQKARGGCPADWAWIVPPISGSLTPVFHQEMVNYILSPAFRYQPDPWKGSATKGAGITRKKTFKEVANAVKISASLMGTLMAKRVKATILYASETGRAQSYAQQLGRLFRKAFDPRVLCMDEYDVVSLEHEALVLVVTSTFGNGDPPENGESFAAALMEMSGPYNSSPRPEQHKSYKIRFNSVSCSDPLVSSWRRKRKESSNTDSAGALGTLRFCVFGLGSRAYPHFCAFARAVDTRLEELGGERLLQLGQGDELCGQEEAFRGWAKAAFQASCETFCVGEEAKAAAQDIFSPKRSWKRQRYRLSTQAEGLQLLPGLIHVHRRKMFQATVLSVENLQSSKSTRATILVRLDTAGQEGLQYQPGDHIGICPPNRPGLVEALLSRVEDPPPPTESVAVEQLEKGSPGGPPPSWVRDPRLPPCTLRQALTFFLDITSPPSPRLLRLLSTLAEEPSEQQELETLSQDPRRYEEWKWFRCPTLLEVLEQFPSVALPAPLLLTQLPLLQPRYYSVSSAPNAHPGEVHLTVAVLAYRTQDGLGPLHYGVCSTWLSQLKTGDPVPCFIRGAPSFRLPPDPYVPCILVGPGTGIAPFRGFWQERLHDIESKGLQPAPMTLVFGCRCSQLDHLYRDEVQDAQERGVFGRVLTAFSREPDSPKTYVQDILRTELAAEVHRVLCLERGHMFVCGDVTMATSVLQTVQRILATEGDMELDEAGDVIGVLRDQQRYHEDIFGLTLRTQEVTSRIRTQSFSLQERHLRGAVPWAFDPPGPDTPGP

[3] = target: Nitric oxide synthase 1 (Rattus norvegicus, UniProt P29476)
Chain of Nitric oxide synthase 1 (P29476 whole entry): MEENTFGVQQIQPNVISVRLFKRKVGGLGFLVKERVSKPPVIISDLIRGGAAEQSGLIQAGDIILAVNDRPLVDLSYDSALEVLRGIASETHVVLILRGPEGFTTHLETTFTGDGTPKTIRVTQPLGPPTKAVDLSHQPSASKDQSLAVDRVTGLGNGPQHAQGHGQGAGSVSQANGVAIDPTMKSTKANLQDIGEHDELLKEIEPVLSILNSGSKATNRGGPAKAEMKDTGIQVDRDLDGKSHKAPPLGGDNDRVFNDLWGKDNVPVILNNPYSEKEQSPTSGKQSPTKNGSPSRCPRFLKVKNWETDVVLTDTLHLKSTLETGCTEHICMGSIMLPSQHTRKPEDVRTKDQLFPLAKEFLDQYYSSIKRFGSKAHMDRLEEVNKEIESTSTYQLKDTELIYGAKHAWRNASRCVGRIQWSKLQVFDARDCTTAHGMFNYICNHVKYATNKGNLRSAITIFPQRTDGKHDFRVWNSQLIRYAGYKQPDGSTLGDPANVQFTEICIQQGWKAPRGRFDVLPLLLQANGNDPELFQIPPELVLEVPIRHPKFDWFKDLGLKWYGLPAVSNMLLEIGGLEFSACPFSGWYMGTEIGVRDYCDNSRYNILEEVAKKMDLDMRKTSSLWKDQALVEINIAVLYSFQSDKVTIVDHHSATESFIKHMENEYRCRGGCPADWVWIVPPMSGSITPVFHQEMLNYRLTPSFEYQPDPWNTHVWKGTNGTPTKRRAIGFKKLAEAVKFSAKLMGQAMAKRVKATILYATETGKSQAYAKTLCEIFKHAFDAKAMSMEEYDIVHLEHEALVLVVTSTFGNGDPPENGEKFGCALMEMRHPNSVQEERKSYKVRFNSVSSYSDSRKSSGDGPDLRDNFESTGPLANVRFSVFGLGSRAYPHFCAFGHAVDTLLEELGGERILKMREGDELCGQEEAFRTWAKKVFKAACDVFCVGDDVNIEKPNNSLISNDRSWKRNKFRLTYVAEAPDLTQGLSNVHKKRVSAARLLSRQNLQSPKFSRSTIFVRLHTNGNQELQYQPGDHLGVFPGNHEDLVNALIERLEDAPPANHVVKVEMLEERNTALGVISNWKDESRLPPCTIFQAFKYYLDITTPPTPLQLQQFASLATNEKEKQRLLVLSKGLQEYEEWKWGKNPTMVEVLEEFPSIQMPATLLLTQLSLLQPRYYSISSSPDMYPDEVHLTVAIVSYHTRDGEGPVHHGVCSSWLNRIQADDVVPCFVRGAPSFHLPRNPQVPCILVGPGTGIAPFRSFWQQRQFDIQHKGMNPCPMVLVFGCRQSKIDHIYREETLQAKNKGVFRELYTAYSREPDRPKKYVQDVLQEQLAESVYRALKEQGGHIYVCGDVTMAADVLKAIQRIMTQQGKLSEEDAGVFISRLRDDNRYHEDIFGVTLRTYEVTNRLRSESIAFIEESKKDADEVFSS

Structure (SMILES)	Ki [1] [µM]	Ki [2] [µM]	Ki [3] [µM]
Nc1cccc(C[C@H]2CNC[C@H]2NC[C@@H](N)Cc2ccccc2)n1 (racemic)	297	1450	2.3
Nc1cccc(C[C@H]2CNC[C@H]2N[C@H]2CCNC2)n1 (racemic)	174	243	1.26
CC(=O)[C@@H]1C[C@@H](NC(=O)[C@@H](N)CCCNC(=N)N[N+](=O)[O-])CN1	29	128	0.1
Nc1cccc(C[C@H]2CNC[C@H]2N[C@@H]2CCNC2)n1 (racemic)	200	424	1.36
Nc1cccc(C[C@H]2CNC[C@H]2N[C@@H]2CCN(Cc3ccccc3)C2)n1 (racemic)	425	181	2.74
Cc1cc(C[C@H]2CNC[C@H]2NCCNCCc2cccc(F)c2)cc(N)n1 (racemic)	10.6	164	0.551
CC(=O)[C@H]1CNC[C@@H]1NC(=O)[C@@H](N)CCCNC(=N)N[N+](=O)[O-]	5.76	200	0.087
Nc1cccc(C[C@H]2CNC[C@H]2NC[C@H](N)Cc2ccccc2)n1 (racemic)	238	1450	2.42
Nc1cccc(C[C@H]2CNC[C@H]2NCCNCc2ccccc2)n1 (racemic)	161	1450	1.18
Cc1cc(N)nc(C[C@H]2CNC[C@H]2NCCNCc2cccc(C(F)(F)F)c2)c1 (racemic)	–	–	0.206

Continued by falling Ki [2], values first:

Ki [1] [µM]	Ki [2] [µM]	Ki [3] [µM]	Structure (SMILES)
232	141	18.8	Cc1cc(C[C@H]2CNC[C@H]2NCCNCc2ccc(Cl)cc2)cc(N)n1 (racemic)
195	140	3.33	CN(C)CCN[C@@H]1CNC[C@@H]1Cc1cccc(N)n1 (racemic)
7.97	130	0.144	Cc1cc(N)nc(C[C@H]2CNC[C@H]2NCCNCc2ccc(F)cc2)c1 (racemic)
–	125	–	Cc1cc(N)nc(C[C@H]2CNC[C@H]2N(C)CCNCc2ccc(Cl)cc2)c1 (racemic)
222	108	3.34	Nc1cccc(C[C@H]2CNC[C@H]2N[C@H]2CCN(Cc3ccccc3)C2)n1 (racemic)
38.2	92.4	0.326	Cc1cc(N)nc(C[C@H]2CNC[C@H]2N(C)CCNCCc2cccc(F)c2)c1 (racemic)
14.1	84	0.197	Cc1cc(N)nc(C[C@H]2CNC[C@H]2NCCNCc2ccc(C(F)(F)F)cc2)c1 (racemic)
9.01	72	0.159	Cc1cccc(CNCCN[C@@H]2CNC[C@@H]2Cc2cc(C)cc(N)n2)c1 (racemic)
56.6	48.9	1.21	Cc1cc(N)nc(C[C@H]2CNC[C@H]2N(C)CCN(C)CCc2cccc(F)c2)c1 (racemic)
3.56	41	0.157	Cc1cc(N)nc(C[C@H]2CNC[C@H]2NCCNCc2ccc(Cl)c(Cl)c2)c1 (racemic)
12.2	40	0.136	Cc1cc(N)nc(C[C@H]2CNC[C@H]2NC[C@H](C)NCc2ccc(Cl)cc2)c1 (racemic)
7.7	30	0.11	Cc1cc(N)nc(C[C@H]2CNC[C@H]2NCCNCc2ccc(Cl)cc2Cl)c1 (racemic)
4.6	18	0.027	Cc1cc(N)nc(C[C@H]2CNC[C@H]2NCCNCCc2ccc(F)cc2)c1 (racemic)
